The subject of one series is MCF7. The series is described as follows: Antiproliferative activity against human MCF7 cells assessed as inhibition of cell proliferation incubated for 48 hrs by MTT assay. As to conditions: MCF7, 48 h. It is filed as functional, cell-based.
In a further series the test system is NCI-N87. In words: Antiproliferative activity against human NCI-N87 cells assessed as inhibition of cell proliferation incubated for 48 hrs by MTT assay. It is filed as functional, cell-based. Conditions: NCI-N87, 48 h. In general terms: Formazan colour is commonly taken as a measure of viable cells.
Series [1] is described as follows: Cytotoxicity against human L02 cells assessed as inhibition of cell proliferation incubated for 48 hrs by MTT assay. It is filed as toxicity, cell-based.
Series [2] can be described thus: Selectivity index, ratio of IC50 for cytotoxicity against human GES1 cells to IC50 for antiproliferative activity against human BGC-823 cells in presence of H2O2. Conditions: GES1 cells and BGC-823 cells, read-out: Ratio IC50. It is filed as toxicity, cell-based.
Series [3] is described as follows: Cytotoxicity against human GES1 cells assessed as inhibition of cell proliferation incubated for 48 hrs by MTT assay. It is filed as toxicity, cell-based.
A further series relates to SGC-7901. In words: Antiproliferative activity against human SGC-7901 cells assessed as inhibition of cell proliferation incubated for 48 hrs by MTT assay. It is filed as functional, cell-based. Conditions: SGC-7901, 48 h.
A further series relates to HepG2. In words: Antiproliferative activity against human HepG2 cells assessed as inhibition of cell proliferation incubated for 48 hrs by MTT assay. It is filed as functional, cell-based. As to conditions: HepG2, 48 h.
Series [4] relates to BGC-823. In words: Antiproliferative activity against human BGC-823 cells assessed as inhibition of cell proliferation preincubated with H2O2 for 2 hrs followed by compound addition and measured after 48 hrs by MTT assay. In kind it is functional, cell-based.
A further series deals with MGC-803. The series is described as follows: Antiproliferative activity against human MGC-803 cells assessed as inhibition of cell proliferation incubated for 48 hrs by MTT assay. As to conditions: MGC-803, 48 h. It is filed as functional, cell-based.
In series [5] the test system is BGC-823. In words: Antiproliferative activity against human BGC-823 cells assessed as inhibition of cell proliferation incubated for 48 hrs by MTT assay. It is filed as functional, cell-based. Conditions: BGC-823, 48 h.
Series [6] is described as follows: Cytotoxicity against human MCF-10A cells assessed as inhibition of cell proliferation incubated for 48 hrs by MTT assay. In kind it is toxicity, cell-based.
A short description of series [7]: Acute toxicity in ip dosed ICR mouse assessed as mortality rate by measuring ratio at 2.16 logarithm of dose relative to total number of mouse. As to conditions: in vivo. It is filed as organism-based.
Series [8] deals with BGC-823. The series is described as follows: Induction of ROS generation in human BGC-823 cells assessed as cells with green fluorescence at 1 uM incubated for 24 hrs by DCFH-DA staining based analysis relative to control. In kind it is functional.
A short description of series [9]: Binding affinity to DTT in PBS assessed as UV peak appearance at 288 nm at 360 uM by UV-Vis spectra analysis.
The subject of series [10] is BGC-823. In words: Antitumor activity against human BGC-823 cells xenografted in BALB/c nude mouse assessed as tumor growth inhibition at 5 mg/kg, ip administered for 21 days relative to control. In kind it is functional. As to conditions: BGC-823, 504 h, time 21 day, read-out: TGI. On the technique in general: In xenograft studies the graft and the host belong to different species.

A short description of series [11]: Acute toxicity in ip dosed ICR mouse assessed as animal death at 2.16 logarithm of dose. In kind it is organism-based. As to conditions: in vivo.
Series [12] has as its system BGC-823. The series is described as follows: Induction of apoptosis in human BGC-823 cells assessed as late apoptotic cells at 1 uM incubated for 48 hrs by Annexin V-FITC/PI staining based flow cytometric analysis ( Rvb = 5.61 %). It is filed as functional.
Series [13] relates to BGC-823. In words: Induction of apoptosis in human BGC-823 cells assessed as viable cells at 1 uM incubated for 48 hrs by Annexin V-FITC/PI staining based flow cytometric analysis ( Rvb = 90.09 %). In kind it is functional. Conditions: read-out: Activity.
Series [14] concerns BGC-823. The series is described as follows: Induction of apoptosis in human BGC-823 cells assessed as early apoptotic cells at 1 uM incubated for 48 hrs by Annexin V-FITC/PI staining based flow cytometric analysis ( Rvb = 1.68 %). In kind it is functional. (In general: A flow cytometer gives signals particle by particle.)
The nature of series [15]: Acute toxicity in ip dosed ICR mouse assessed as mortality rate by measuring ratio at 1.68 logarithm of dose relative to total number of mouse. It is filed as organism-based. As to conditions: in vivo.
A short description of series [16]: Acute toxicity in ip dosed ICR mouse assessed as mortality rate by measuring ratio at 1.91 logarithm of dose relative to total number of mouse. In kind it is organism-based. Conditions: in vivo.
Series [17] relates to BGC-823. In words: Induction of apoptosis in human BGC-823 cells assessed as necrotic cells at 1 uM incubated for 48 hrs by Annexin V-FITC/PI staining based flow cytometric analysis ( Rvb = 1.79 %). It is filed as functional.
Series [18] in a line: Acute toxicity in ip dosed ICR mouse assessed as lethal dose. It is filed as organism-based. As to conditions: in vivo.
Series [19] is described as follows: Acute toxicity in ip dosed ICR mouse assessed as animal death at 2.03 logarithm of dose. As to conditions: in vivo. It is filed as organism-based.
Series [20] in a line: Acute toxicity in ip dosed ICR mouse assessed as mortality rate by measuring ratio at 1.80 logarithm of dose relative to total number of mouse. As to conditions: in vivo. In kind it is organism-based.
Series [21] is described as follows: Acute toxicity in ip dosed ICR mouse assessed as mortality rate by measuring ratio at 1.57 logarithm of dose relative to total number of mouse. Conditions: in vivo. It is filed as organism-based.
Series [22] in a line: Acute toxicity in ip dosed ICR mouse assessed as mortality rate by measuring ratio at 2.04 logarithm of dose relative to total number of mouse. It is filed as organism-based. Conditions: in vivo.
Series [23] can be described thus: Acute toxicity in ip dosed ICR mouse assessed as animal death at 1.57 logarithm of dose. In kind it is organism-based. As to conditions: in vivo.

Active and inactive are the calls of the source. No cut-off for these calls is given here.

In the case of `CC1(C)CC[C@]2(C(=O)OCCCCCOc3ccc(NC(=O)OCc4ccc(B5OC(C)(C)C(C)(C)O5)cc4)cc3)CC[C@]3(C)[C@H](C(=O)C=C4[C@@]5(C)C=C(C#N)C(=O)C(C)(C)[C@@H]5CC[C@]43C)[C@@H]2C1`, the IC50 in the series with MCF7 was 2700 nM; with NCI-N87 it was 1600 nM; with SGC-7901, 3100 nM; in the series on HepG2 it was 3900 nM; with BGC-823 [4], 800 nM; in the series on MGC-803, 2700 nM. Also, the IC50 with BGC-823 [5] is 1400 nM. Further, the IC50 at 48 h in [1] turned out to be 4900 nM; in series [3] it was 3000 nM; in series [6], 5900 nM. For the same molecule, the selectivity ratio in series [2] stood at 3.75.
With `COC(=O)[C@]12CCC(C)(C)C[C@H]1[C@H]1C(=O)C=C3[C@@]4(C)C=C(C#N)C(=O)C(C)(C)[C@@H]4CC[C@@]3(C)[C@]1(C)CC2` [BARDOXOLONE METHYL], the IC50 with MCF7 was found to be 1200 nM; in the series with NCI-N87, 800 nM; in the series with SGC-7901 it was 600 nM; in the series on HepG2 it was 500 nM; with BGC-823 [4], 500 nM; with MGC-803 it was 900 nM. Moreover, the IC50 with BGC-823 [5] worked out at 500 nM. Also, the Ratio in [7] is reported as 1; in series [15], 0.25; in [16] it was 0.67; in series [20] it was 0.6; in [21], 0; in series [22], 0.83. The Activity in the series on BGC-823 [8] is reported as 97.6%; in [11], “Toxic”; in the series with BGC-823 [12], 24.5%; in the series on BGC-823 [14], 6.59%; in the series with BGC-823 [17], 7.6%; in series [19] it was “Toxic”. Besides, the Activity result in series [23] was “Non-Toxic”. The outcome in series [9] was Active. In addition, the IC50 at 48 h was determined as 400 nM in [1], 400 nM in [3] and 800 nM in series [6]. In series [2], the selectivity ratio stood at 1. Moreover, the inhibition in vivo at 5 mg/kg with BGC-823 [10] stood at 51.7%. In addition, the viability at 1 µM in the series on BGC-823 [13] is 61.3%. In addition, the LD50 in series [18] worked out at 61.7 mg/kg.
As to `CC1(C)CC[C@]2(C(=O)OCCCOC(=O)c3ccc(OCc4ccc(B5OC(C)(C)C(C)(C)O5)cc4)cc3)CC[C@]3(C)[C@H](C(=O)C=C4[C@@]5(C)C=C(C#N)C(=O)C(C)(C)[C@@H]5CC[C@]43C)[C@@H]2C1`, the IC50 in the series on MCF7 was found to be 1500 nM; in the series on HepG2, 3000 nM; with BGC-823 [5] it was 2000 nM. The figures for the IC50 at 48 h in [1], in [3] and in series [6] were 3600 nM, 2700 nM and 3100 nM, respectively.
Take `CC1(C)CC[C@]2(C(=O)OCCCOc3ccc(NC(=O)OCc4ccc(B5OC(C)(C)C(C)(C)O5)cc4)cc3)CC[C@]3(C)[C@H](C(=O)C=C4[C@@]5(C)C=C(C#N)C(=O)C(C)(C)[C@@H]5CC[C@]43C)[C@@H]2C1`: the IC50 in the series with MCF7 was found to be 1100 nM; in the series with HepG2, 2800 nM; in the series with BGC-823 [5], 1200 nM. For the same molecule, the values for the IC50 at 48 h in [1], in series [3] and in series [6] were 3500 nM, 1500 nM and 1800 nM, respectively.
Consider `CC1(C)CC[C@]2(C(=O)OCCCCCOC(=O)c3ccc(OCc4ccc(B5OC(C)(C)C(C)(C)O5)cc4)cc3)CC[C@]3(C)[C@H](C(=O)C=C4[C@@]5(C)C=C(C#N)C(=O)C(C)(C)[C@@H]5CC[C@]43C)[C@@H]2C1`, for which the figures for the IC50 in the series with MCF7, in the series with HepG2 and with BGC-823 [5] were 1600 nM, 2800 nM and 2100 nM, respectively. Also, the IC50 at 48 h in [1] worked out at 3500 nM; in series [3] it was 2800 nM; in series [6], 3100 nM.
In the case of `CC1(C)CC[C@]2(C(=O)OCCc3ccc(OCc4ccc(B5OC(C)(C)C(C)(C)O5)cc4)cc3)CC[C@]3(C)[C@H](C(=O)C=C4[C@@]5(C)C=C(C#N)C(=O)C(C)(C)[C@@H]5CC[C@]43C)[C@@H]2C1`, the IC50 in the series on MCF7 is 1000 nM; in the series with HepG2, 2000 nM; with BGC-823 [5] it was 700 nM. Moreover, the IC50 at 48 h in [1] was determined as 2100 nM; in series [3], 800 nM; in series [6], 1700 nM.

By IC50 is commonly meant the midpoint of a concentration-inhibition curve. As usually defined, the LD50 is the dose expected to kill half of the subjects tested.
